Data published in US10047104B2, “Bicyclic heterocyclyl derivatives as IRAK4 inhibitors” (Aurigene Discovery Technologies Limited, priority 2014, dated 2018).
Counter-ions that a name gives are not always drawn.

biological target: T1, recombinant IRAK-4 kinase (Homo sapiens, UniProt Q9NWZ3); experiment: IRAK-4 Biochemical Assay (TR-FRET); conditions: 5 ng IRAK-4 kinase, 100 nM Biotin Histone H3, 20 μM ATP, 30 minutes pre-incubation, read-out: IC50 values for IRAK4 activity
T1 construct: purchased Millipore, USA
T1 sequence (Q9NWZ3 1-460): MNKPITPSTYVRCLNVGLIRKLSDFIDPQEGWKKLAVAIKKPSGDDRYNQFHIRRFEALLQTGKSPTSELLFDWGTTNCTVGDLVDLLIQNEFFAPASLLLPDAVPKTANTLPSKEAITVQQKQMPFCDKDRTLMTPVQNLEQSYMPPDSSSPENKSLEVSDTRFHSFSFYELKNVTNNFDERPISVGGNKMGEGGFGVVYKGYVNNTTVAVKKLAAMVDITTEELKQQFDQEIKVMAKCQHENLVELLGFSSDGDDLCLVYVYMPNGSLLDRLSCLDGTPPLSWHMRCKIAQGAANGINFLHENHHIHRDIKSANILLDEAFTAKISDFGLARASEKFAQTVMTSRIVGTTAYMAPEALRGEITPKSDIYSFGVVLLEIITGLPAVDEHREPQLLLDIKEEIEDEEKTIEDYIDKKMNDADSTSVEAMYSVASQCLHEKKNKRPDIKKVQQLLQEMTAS
Procedure: Compounds were tested for their potential to inhibit IRAK-4 enzyme in a TR-FRET assay using recombinant IRAK-4 kinase from Millipore, USA. The assay buffer was 50 mM Tris-HCl pH 7.5, 20 mM MgCl2, 1 mM EGTA, 2 mM DTT, 3 mM MnCl2 and 0.01% Tween20. 5 ng of IRAK-4 kinase was used for the assay. After pre-incubation of enzyme with test compound for 30 minutes at room temperature, a substrate mix containing 100 nM Biotin Histone H3 (Millipore, USA) and 20 μM ATP (Sigma, USA) was added and the reaction was incubated for 30 minutes. Post incubation, the reaction was stopped by the addition of stop mix containing 40 mM EDTA, 1 nM of Europium-Anti-Phospho-Histone H3 (Ser10) antibody (Perkin Elmer, USA) and 20 nM Sure Light Allophycocyanin-Streptavidin (Perkin Elmer, USA).

| SMILES | IC50 |
| --- | --- |
| Cc1cc(-c2nc(C(=O)Nc3cc4sc(N5CCCC(O)C5)nc4nc3N3CCC(F)CC3)co2)ccn1 (stereo not shown) [Example 133, N-(5-(4-fluoropiperidin-1-yl)-2-(3-hydroxypiperidin-1-yl)thiazolo[4,5-b]pyridin-6-yl)-2-(2-methylpyridin-4-yl)oxazole-4-carboxamide] | < 50 nM |
| COc1ccc(-c2nc(C(=O)Nc3cc4oc(N5CCCCC5)nc4nc3N3CCCCC3)co2)cn1 [Example 26, N-(2,5-di(piperidin-1-yl)oxazolo[4,5-b]pyridin-6-yl)-2-(6-methoxypyridin-3-yl)oxazole-4-carboxamide] | < 50 nM |
| COc1cc(-c2nc(C(=O)Nc3cc4sc(N5CCCCC5)nc4nc3N3CCCCC3)co2)ccn1 [Example 56, N-(2,5-di(piperidin-1-yl)thiazolo[4,5-b]pyridin-6-yl)-2-(2-methoxypyridin-4-yl)oxazole-4-carboxamide] | < 50 nM |
| Cc1cc(-c2ccc(C(=O)Nc3cc4sc(N5CCOCC5)nc4nc3N3CC[C@H](O)C3)o2)ccn1 [Example 82, (S)—N-(5-(3-hydroxypyrrolidin-1-yl)-2-morpholinothiazolo[4,5-b]pyridin-6-yl)-5-(2-methylpyridin-4-yl)furan-2-carboxamide] | < 50 nM |
| O=C(Nc1cc2oc(N3CCCCC3)nc2nc1N1CCCCC1)c1coc(-c2ccc(O)nc2)n1 [Example 30, N-(2,5-di(piperidin-1-yl)oxazolo[4,5-b]pyridin-6-yl)-2-(6-hydroxypyridin-3-yl)oxazole-4-carboxamide] | > 100 nM |
| Nc1ccc(-c2cccc(C(=O)Nc3cc4sc(N5CCOCC5)nc4cn3)n2)cn1 [Example 13, 6′-amino-N-(2-morpholinothiazolo[4,5-c]pyridin-6-yl)-[2,3′-bipyridine]-6-carboxamide] | < 50 nM |
| Cc1cc(-c2ccc(C(=O)Nc3cc4sc(N5CCOCC5)nc4nc3N3CCCC(F)C3)o2)ccn1 (stereo not shown) [Example 102, N-(5-(3-fluoropiperidin-1-yl)-2-morpholinothiazolo[4,5-b]pyridin-6-yl)-5-(2-methylpyridin-4-yl)furan-2-carboxamide] | < 50 nM |
| Cc1cc(-c2ccc(C(=O)Nc3cc4oc(N5CCOCC5)nc4nc3N3CC[C@H](O)C3)s2)ccn1 [Example 108, (S)—N-(5-(3-hydroxypyrrolidin-1-yl)-2-morpholinooxazolo[4,5-b]pyridin-6-yl)-5-(2-methylpyridin-4-yl)thiophene-2-carboxamide] | > 100 nM |
| N[C@H]1CCN(c2nc(C(=O)Nc3cc4oc(N5CCOCC5)nc4nc3C3CC3)co2)C1 [Example 47, (S)-2-(3-aminopyrrolidin-1-yl)-N-(5-cyclopropyl-2-morpholinooxazolo[4,5-b]pyridin-6-yl)oxazole-4-carboxamide] | < 50 nM |
| Cc1cc(-c2nc(C(=O)Nc3cc4sc(N5CCOCC5)nc4nc3N3CCCCCC3)co2)ccn1 [Example 91, N-(5-(azepan-1-yl)-2-morpholinothiazolo[4,5-b]pyridin-6-yl)-2-(2-methylpyridin-4-yl)oxazole-4-carboxamide] | < 50 nM |
| Cc1cc(-c2nc(C(=O)Nc3cc4oc(N5CCCCC5)nc4nc3N3CCCCC3)co2)ccn1 [Example 5, N-(2,5-di(piperidin-1-yl)oxazolo[4,5-b]pyridin-6-yl)-2-(2-methylpyridin-4-yl)oxazole-4-carboxamide] | < 50 nM |
| N[C@H]1CCN(c2cccc(C(=O)Nc3cc4sc(N5CCOCC5)nc4nc3N3CCCCC3)n2)C1 [Example 62, (S)-6-(3-aminopyrrolidin-1-yl)-N-(2-morpholino-5-(piperidin-1-yl)thiazolo[4,5-b]pyridin-6-yl)picolinamide] | < 50 nM |
| O=C(Nc1cc2sc(N3CCOCC3)nc2nc1N1CCCCC1)c1coc(-c2cccnc2O)n1 [Example 55, 2-(2-hydroxypyridin-3-yl)-N-(2-morpholino-5-(piperidin-1-yl)thiazolo[4,5-b]pyridin-6-yl)oxazole-4-carboxamide] | < 50 nM |
| Nc1cc(-c2ccc(C(=O)Nc3cc4sc(N5CCOCC5)nc4nc3N3CCC(O)CC3)o2)ccn1 [Example 129, 5-(2-aminopyridin-4-yl)-N-(5-(4-hydroxypiperidin-1-yl)-2-morpholinothiazolo[4,5-b]pyridin-6-yl)furan-2-carboxamide hydrochloride] | < 50 nM |
| Cn1cc(-c2cccc(C(=O)Nc3cc4sc(N5CCOCC5)nc4nc3N3CCCCC3)n2)cn1 [Example 51, 6-(1-methyl-1H-pyrazol-4-yl)-N-(2-morpholino-5-(piperidin-1-yl)thiazolo[4,5-b]pyridin-6-yl)picolinamide] | < 50 nM |
| Cc1cc(-c2ccc(C(=O)Nc3cc4oc(N5CCOCC5)nc4nc3N3CCC(O)CC3)o2)ccn1 [Example 114, N-(5-(4-hydroxypiperidin-1-yl)-2-morpholinooxazolo[4,5-b]pyridin-6-yl)-5-(2-methylpyridin-4-yl)furan-2-carboxamide] | < 50 nM |
| Cc1cc(-c2nc(C(=O)Nc3cc4oc(N5CCOCC5)nc4nc3-c3ccoc3)co2)ccn1 [Example 116, N-(5-(furan-3-yl)-2-morpholinooxazolo[4,5-b]pyridin-6-yl)-2-(2-methylpyridin-4-yl)oxazole-4-carboxamide] | < 50 nM |
| Cc1ncccc1-c1nc(C(=O)Nc2cc3sc(N4CCCCC4)nc3nc2N2CCCCC2)co1 [Example 52, N-(2,5-di(piperidin-1-yl)thiazolo[4,5-b]pyridin-6-yl)-2-(2-methylpyridin-3-yl)oxazole-4-carboxamide hydrochloride] | < 50 nM |

The remaining lines, values ahead:

| IC50 | SMILES |
| --- | --- |
| < 50 nM | CC(=O)Nc1cc(-c2nc(C(=O)Nc3cc4sc(N5CCOCC5)nc4nc3N3CCC(O)CC3)co2)ccn1 [Example 125, 2-(2-acetamidopyridin-4-yl)-N-(5-(4-hydroxypiperidin-1-yl)-2-morpholinothiazolo[4,5-b]pyridin-6-yl)oxazole-4-carboxamide] |
| < 50 nM | Cc1cc(-c2nc(C(=O)Nc3cc4sc(N5CCOCC5)nc4nc3N3CCC[C@H](F)C3)co2)ccn1 [Example 59, (S)—N-(5-(3-fluoropiperidin-1-yl)-2-morpholinothiazolo[4,5-b]pyridin-6-yl)-2-(2-methylpyridin-4-yl)oxazole-4-carboxamide] |
| < 50 nM | O=C(Nc1cc2sc(N3CCOCC3)nc2nc1C1CC1)c1coc(N2CC[C@H](O)C2)n1 [Example 73, (S)—N-(5-cyclopropyl-2-morpholinothiazolo[4,5-b]pyridin-6-yl)-2-(3-hydroxypyrrolidin-1-yl)oxazole-4-carboxamide] |
| < 50 nM | COc1ccc(-c2nc(C(=O)Nc3cc4sc(N5CCOCC5)nc4nc3N3CCC(O)C3)co2)cn1 (stereo not shown) [Example 76, N-(5-(3-hydroxypyrrolidin-1-yl)-2-morpholinothiazolo[4,5-b]pyridin-6-yl)-2-(6-methoxypyridin-3-yl)oxazole-4-carboxamide] |
| < 50 nM | Cc1cc(-c2nc(C(=O)Nc3cc4sc(N5CCOCC5)nc4nc3N3CCC[C@@H](O)C3)co2)ccn1 [Example 94, (R)—N-(5-(3-hydroxypiperidin-1-yl)-2-morpholinothiazolo[4,5-b]pyridin-6-yl)-2-(2-methylpyridin-4-yl)oxazole-4-carboxamide] |
| < 50 nM | Nc1cc(-c2nc(C(=O)Nc3cc4sc(N5CCOCC5)nc4nc3N3CCC(O)CC3)co2)ccn1 [Example 130, 2-(2-aminopyridin-4-yl)-N-(5-(4-hydroxypiperidin-1-yl)-2-morpholinothiazolo[4,5-b]pyridin-6-yl)oxazole-4-carboxamide hydrochloride] |
| < 50 nM | COc1ccc(-c2nc(C(=O)Nc3cc4sc(N5CCOCC5)nc4nc3N3CCCCC3)co2)cn1 [Example 57, 2-(6-methoxypyridin-3-yl)-N-(2-morpholino-5-(piperidin-1-yl)thiazolo[4,5-b]pyridin-6-yl)oxazole-4-carboxamide] |
| < 50 nM | Cc1cc(-c2nc(C(=O)Nc3cc4sc(N5CCOCC5)nc4nc3N3C4CCC3CC(O)C4)co2)ccn1 (stereo not shown) [Example 123, N-(5-(3-hydroxy-8-azabicyclo[3.2.1]octan-8-yl)-2-morpholinothiazolo[4,5-b]pyridin-6-yl)-2-(2-methylpyridin-4-yl)oxazole-4-carboxamide] |
| < 50 nM | Nc1cc(-c2nc(C(=O)Nc3cc4sc(N5CCOCC5)nc4nc3N3CCC(F)CC3)co2)ccn1 [Example 131, 2-(2-aminopyridin-4-yl)-N-(5-(4-fluoropiperidin-1-yl)-2-morpholinothiazolo[4,5-b]pyridin-6-yl)oxazole-4-carboxamide hydrochloride] |
| < 50 nM | C[C@H](O)Cn1cc(-c2nc(C(=O)Nc3cc4sc(N5CCOCC5)nc4nc3C3CC3)co2)cn1 [Example 75, (S)—N-(5-cyclopropyl-2-morpholinothiazolo[4,5-b]pyridin-6-yl)-2-(1-(2-hydroxypropyl)-1H-pyrazol-4-yl)oxazole-4-carboxamide] |
